Entries after “also recorded” stand apart in the source; their conditions may differ. Where no end group is shown, it is not given here.
Tests used:
human SNORF44 = assay: Calcium-activated Cl- currents in Xenopus laevis oocytes (voltage clamp); assay type: cell-based; settings: control (uninjected) oocytes not expressing hSNORF44
Procedure: (§1) Oocytes were harvested from Xenopus laevis and injected with mRNA transcripts as previously described (Quick and Lester, 1994; Smith et al.,1997). Synthetic, full-length RNA transcripts for human SNORF44 were produced by digestion of the plasmid BN16 with HINDIII followed by transcription with T7 RNA Polymerase (“Message Machine”, Ambion). Oocytes were injected with 15 ng hSN44 receptors synthetic RNA and incubated for 3-4 days at 17 degrees. Dual electrode voltage clamp (Axon Instruments Inc.) was performed using 3 M KCl-filled glass microelectrodes having resistances of 1-2 Mohm. Unless otherwise specified, oocytes were voltage clamped at a holding potential of −80 mV. During recordings, oocytes were bathed in continuously flowing (1-3 ml/min) medium containing 96 mM NaCl, 2 mM KCl, 1.8 mM CaCl2, 1 mM MgCl2, and 5 mM HEPES, pH 7.5 (ND96 Buffer). Drugs were applied by local perfusion from a […] glass capillary tube fixed at a distance of 0.5 mm from the oocyte.
(§2) Heterologous expression of GPCRs in Xenopus oocytes has been widely used to determine the identity of signaling pathways activated by agonist stimulation (Gundersen et al., 1983; Takahashi et al., 1987). Activation of the phospholipase C (PLC) pathway is assayed by applying test compound in ND96 solution to oocytes previously injected with mRNA for the mammalian receptor and observing inward currents at a holding potential of −80 mV. The appearance of currents that reverse at −25 mV and display other properties of the Ca^++-activated Cl^− (chloride) channel is indicative of mammalian receptor-activation of PLC and release of IP3 and intracellular Ca^++.

hSNORF44 [1] = target: T1, hSNORF44 (Homo sapiens, UniProt Q96P65); assay: Intracellular Ca2+ release (FLIPR) in transiently transfected COS-7 cells; assay type: cell-based; parameters: The entire coding region was then amplified by PCR from human spinal cord cDNA and subcloned into pcDNA3.1(−) for expression and functional analyses; expressed in transfected cells; host or cells: COS-7; settings: COS-7 cells transfected with SNORF44
T1 sequence (Q96P65 1-431): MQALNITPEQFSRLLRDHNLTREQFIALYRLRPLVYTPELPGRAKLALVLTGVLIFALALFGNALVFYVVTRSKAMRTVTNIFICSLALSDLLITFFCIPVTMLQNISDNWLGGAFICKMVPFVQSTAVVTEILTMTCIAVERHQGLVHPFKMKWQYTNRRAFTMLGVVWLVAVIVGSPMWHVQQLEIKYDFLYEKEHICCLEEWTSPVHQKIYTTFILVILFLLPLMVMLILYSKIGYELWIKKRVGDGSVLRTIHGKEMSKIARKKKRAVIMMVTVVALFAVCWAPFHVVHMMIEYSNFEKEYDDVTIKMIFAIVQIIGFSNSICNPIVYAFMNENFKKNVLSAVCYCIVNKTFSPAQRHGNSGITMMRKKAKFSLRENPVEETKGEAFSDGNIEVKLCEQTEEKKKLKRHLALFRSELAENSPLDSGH
Procedure: (§3) A typical protocol for the DEAE-dextran method as applied to COS-7 and HEK293 cells is described as follows. Cells to be used for transfection are split 24 hours prior to the transfection to provide flasks which are 70-80% confluent at the time of transfection. Briefly, 8 μg of receptor DNA plus 8 μg of any additional DNA needed (e.g. Gα protein expression vector, reporter construct, antibiotic resistance marker, mock vector, etc.) are added to 9 ml of complete DMEM plus DEAE-dextran mixture (10 mg/ml in PBS). Cells plated into a T225 flask (sub-confluent) are washed once with PBS and the DNA mixture is added to each flask. The cells are allowed to incubate for 30 minutes at 37° C., 5% CO2. Following the incubation, 36 ml of complete DMEM with 80 μM chloroquine is added to each flask and allowed to incubate an additional 3 hours. The medium is then aspirated and 24 ml of complete medium containing 10% DMSO for exactly 2 minutes and then aspirated. The cells are then washed 2 times with PBS and 30 ml of complete DMEM added to each flask. The cells are then allowed to incubate over night. The next day the cells are harvested by trypsinization and reseeded into 96 well plates.
Cells expressing the receptor of interest are plated into clear, flat-bottom, black-walled 96-well plates (Costar) at a density of 80,000-150,000 cells per well and allowed to incubate for 48 hr at 5% CO2, 37° C. The growth medium is aspirated and 100 μL of loading medium containing Fluo-3 dye is added to each well. […]
(§4) The compounds of interest are diluted in wash buffer (Hank's BSS (without phenol red), 20 mM HEPES, 2.5 mM probenecid) to a 4× final concentration and aliquoted into a clear v-bottom plate (Nunc). […] Compounds are added to the cell plates and responses are measured using the FLIPR™ instrument. The data are then collected and analyzed using the FLIPR™ software and Graphpad Prism. […]

hSNORF44 [2] = target: T1, hSNORF44; assay: Calcium-activated Cl- currents in Xenopus laevis oocytes (voltage clamp); assay type: cell-based; parameters: Synthetic, full-length RNA transcripts for human SNORF44 were produced by digestion of the plasmid BN16; expressed in transfected cells; host or cells: Xenopus laevis oocytes injected with synthetic RNA; settings: oocytes injected with SNORF44 mRNA; 10 μM peptide; holding potential -80 mV
Procedure: as §1, §2

hSNORF44 [3] = target: T1, hSNORF44; assay: Inositol phosphate (IP) release in transfected COS-7 cells; assay type: cell-based; parameters: The entire coding region was then amplified by PCR from human spinal cord cDNA and subcloned into pcDNA3.1(−) for expression and functional analyses; expressed in transfected cells; host or cells: COS-7; settings: hSNORF44-transfected COS-7 cells
Procedure: as §3, with “The medium is then aspirated and 24 ml of complete medium containing 10% DMSO for exactly 2 minutes and then aspirated. The cells are then washed 2 times with PBS and 30 ml of complete DMEM added to each flask. The cells are then allowed to incubate over night. The next day the cells are harvested by trypsinization and reseeded into 96 well plates.” left out
Human SNORF44 receptor-mediated activation of the inositol phosphate (IP) second messenger pathways were assessed by radiometric measurement of IP products.
For example, in a 96 well microplate format assay, COS-7 cells expressing the receptor of interest were plated at a density of 70,000 cells per well and allowed to incubate for 24 hours. […] 200 μL of scintillation cocktail was added to each well, and the radioactivity was determined by liquid scintillation counting.

hSNORF44 [4] = assay: Intracellular Ca2+ release (FLIPR) in transiently transfected COS-7 cells; assay type: cell-based, human; settings: vector-transfected cells (so in the source); data not shown
Procedure: as §3, with “The cells are then washed 2 times with PBS and 30 ml of complete DMEM added to each flask. The cells are then allowed to incubate over night. The next day the cells are harvested by trypsinization and reseeded into 96 well plates.” left out
as §4

MC3 = MC3 (Homo sapiens, UniProt P41968); settings: Schioth et al., 1996; cited from earlier work
human SNORF44 receptor = target: T2, human SNORF44 receptor (human, UniProt Q96P65 1-431); assay: cell-based or functional assay
T2 sequence: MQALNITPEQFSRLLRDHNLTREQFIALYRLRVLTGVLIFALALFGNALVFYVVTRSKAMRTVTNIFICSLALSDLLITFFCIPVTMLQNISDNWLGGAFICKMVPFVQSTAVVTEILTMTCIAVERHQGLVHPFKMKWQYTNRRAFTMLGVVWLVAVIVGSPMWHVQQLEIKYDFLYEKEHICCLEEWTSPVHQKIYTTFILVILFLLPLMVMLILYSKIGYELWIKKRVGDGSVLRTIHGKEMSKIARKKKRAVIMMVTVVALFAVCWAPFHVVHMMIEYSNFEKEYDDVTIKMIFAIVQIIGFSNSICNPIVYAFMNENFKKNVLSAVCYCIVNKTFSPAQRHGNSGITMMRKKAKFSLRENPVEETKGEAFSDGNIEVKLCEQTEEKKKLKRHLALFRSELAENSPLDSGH

Sequence of MC3 (P41968 whole entry): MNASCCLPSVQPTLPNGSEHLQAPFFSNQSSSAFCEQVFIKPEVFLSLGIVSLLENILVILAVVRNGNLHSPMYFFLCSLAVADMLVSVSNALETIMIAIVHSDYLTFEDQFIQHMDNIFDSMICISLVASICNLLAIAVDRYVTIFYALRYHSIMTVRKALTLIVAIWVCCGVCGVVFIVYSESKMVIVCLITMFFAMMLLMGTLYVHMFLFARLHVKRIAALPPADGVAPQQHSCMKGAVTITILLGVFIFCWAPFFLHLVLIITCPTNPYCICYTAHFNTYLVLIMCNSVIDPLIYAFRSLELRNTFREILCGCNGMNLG

| Molecule | response in control oocytes (human SNORF44) | release of intracellular Ca2+ as measured by FLIPR (hSNORF44 [1]) | current amplitude (Ca2+-dependent Cl- current) (hSNORF44 [2]) | EC50, release of IP second messengers, COS-7 cells (human SNORF44 receptor) | other results |
| --- | --- | --- | --- | --- | --- |
| H-MGHFRF-NH2 [Peptide 2, MGHFRF-NH2] | not in control oocytes | stimulated release of intracellular Ca^2+ | 241±65 nA |  |  |
| H-YGGHFRW-NH2 [Peptide 3, YGGHFRW-NH2] | not in control oocytes | stimulated release of intracellular Ca^2+ | 250±46 nA |  |  |
| H-YSMEHFRW-NH2 [Peptide 1] | no response; also recorded: does not respond | concentration-dependent release of intracellular Ca^2+ | 1036±306 nA |  | release of IP second messengers, fold above basal (hSNORF44 [3]): approximately 10 fold |
| NPFF (FLFQPQRF; ends and bridges not checked; UniProt O15130 69-76, looked up) [reference compound] |  |  |  |  | effect on intracellular Ca2+ release (hSNORF44 [4]): neither NPFF nor NPY (ligands activating the most closely related GPCRs) had any significant effect |
| NPY [reference compound] |  |  |  |  | effect on intracellular Ca2+ release (hSNORF44 [4]): neither NPFF nor NPY (ligands activating the most closely related GPCRs) had any significant effect |
| gamma melanocortin [γ-MSH] |  |  |  |  | agonist activity at recombinant MC3 receptor (MC3): agonist |
| YSMEHFRW-NH2 [Peptide 1] |  |  |  | 1210 nM | release of IP second messengers, fold above basal, COS-7 cells (human SNORF44 receptor): ~10 fold |
| YGGHFRW-NH2 [Peptide 3] |  |  |  | 328 nM |  |
| MGHFRF-NH2 [Peptide 2] |  |  |  | 294 nM |  |

From patent US20030143670A1, “DNA encoding SNORF44 receptor” (priority 1999, published 2003)
